≈ marks a conversion by molar mass, not a printed value. Read-outs that look alike come from different tables or passages of the source.
Key:
[1] = system: B. subtilis (isolate); test: Microdilution MIC/MMC with resazurin; type: cell-based, Bacillus subtilis; conditions: for MIC: Bacillus subtilis
Protocol: (§1) The antimicrobial activity of PCH-1 and PCH-2 was tested against 13 microorganisms. The experiment included four standard strains, Staphylococcus aureus ATCC 6538, Bacillus subtilis ATCC 6633, Proteus mirabilis ATCC 12453, and Pseudomonas aeruginosa ATCC 27853; five isolates, Staphylococcus aureus, Escherichia coli, Salmonella enterica, Klebsiella pneumoniae, and Bacillus subtilis; and one probiotic strain Lactobacillus plantarum 299V. Additionally, three fungal strains were tested, including one standard strain, Candida albicans ATCC 10231, and two isolates, Saccharomyces cerevisiae and probiotic strain Saccharomyces boulardii.
(§2) The bacterial suspensions were prepared using the direct colony method. The turbidity of the initial suspension was adjusted using a densitometer (DEN-1, BioSan, Latvia). When adjusted to the turbidity of the 0.5 McFarland standard, the bacterial suspension contains approximately 10^8 colony-forming units (CFU)/mL, and the yeast suspension contains approximately 10^6 CFU/mL. For the experiment, the initial suspension was further diluted at a 1:100 ratio in a sterile 0.85% saline solution.
(§3) The antimicrobial activity was assessed by determining the minimum inhibitory concentrations (MICs) and minimum microbicidal concentrations (MMCs) using the microdilution plate method with resazurin (Alfa Aesar GmbH & Co. (KG, Karlsruhe, Germany)). For this, 96-well plates were prepared by adding 100 μL of Mueller Hinton broth (Torlak, Belgrade, Serbia) for bacterial tests and Sabouraud broth (Torlak, Belgrade, Serbia) for yeast into each well. The tested PCH-1 and PCH-2 were dissolved in 10% dimethyl sulfoxide (DMSO) and then diluted into sterile distilled water. A 100 μL sample from the stock solution of the tested compound was then added to the first row of the plate, followed by twofold serial dilutions using a multichannel pipette. This produced a concentration range from 2.69 to 0.0025 µmol/L. The method is described in detail in the reported paper.
(§4) Each test setup included growth control and sterility control. […] Minimum microbicidal concentrations (MMCs) were determined as described in detail in the reported paper.

[2] = system: B. subtilis ATCC 6633; test: Microdilution MIC/MMC with resazurin; type: cell-based, Bacillus subtilis; conditions: for MIC: Bacillus subtilis, ATCC6633
Protocol: as §1, §2, §3, §4

[3] = system: S. aureus ATCC 25923; test: Microdilution MIC/MMC with resazurin; type: cell-based, Staphylococcus aureus; conditions: for MIC: Staphylococcus aureus, ATCC25923
[4] = system: S. aureus (isolate); test: Microdilution MIC/MMC with resazurin; type: cell-based, Staphylococcus aureus; conditions: for MIC: Staphylococcus aureus
Protocol: as §1, §2, §3, §4

[5] = system: L. plantarum 299V; test: Microdilution MIC/MMC with resazurin; type: cell-based, Lactobacillus plantarum; conditions: for MIC: Lactiplantibacillus plantarum
Protocol: as §1, §2, §3, §4

[6] = system: K. pneumoniae; test: Microdilution MIC/MMC with resazurin; type: cell-based, Klebsiella pneumoniae; conditions: for MIC: Klebsiella pneumoniae
Protocol: as §1, §2, §3, §4

[7] = system: P. aeruginosa ATCC 27853; test: Microdilution MIC/MMC with resazurin; type: cell-based, Pseudomonas aeruginosa; conditions: for MIC: Pseudomonas aeruginosa, ATCC27853
Protocol: as §1, §2, §3, §4

[8] = system: E. coli; test: Microdilution MIC/MMC with resazurin; type: cell-based, Escherichia coli; conditions: for MIC: Escherichia coli
Protocol: as §1, §2, §3, §4

[9] = system: S. cerevisiae; test: Microdilution MIC/MMC with resazurin; type: cell-based, Saccharomyces cerevisiae; conditions: for MIC: Saccharomyces cerevisiae
Protocol: as §1, §2, §3, §4

[10] = system: S. aureus ATCC 25923; test: Inhibition of biofilm formation (crystal violet); type: cell-based, Staphylococcus aureus; conditions: for BIC90: S. aureus ATCC 25923, 48 h
[11] = biological target: T1, Soybean lipoxygenase (Type I-B) (Glycine max, UniProt P08170); test: In vitro LOX inhibition assay; type: biochemical; conditions: for inhibition at 25 µM / inhibition at 50 µM / inhibition at 100 µM: read-out: Anti-LOX Activity (%); for IC50: sodium linoleate substrate, tris buffer pH 9, read-out: IC50 (µM), in vitro lipoxygenase inhibitory activity
T1 construct: purchased Merck (KGaA, Darmstadt, Germany)
T1 sequence (P08170 1-839): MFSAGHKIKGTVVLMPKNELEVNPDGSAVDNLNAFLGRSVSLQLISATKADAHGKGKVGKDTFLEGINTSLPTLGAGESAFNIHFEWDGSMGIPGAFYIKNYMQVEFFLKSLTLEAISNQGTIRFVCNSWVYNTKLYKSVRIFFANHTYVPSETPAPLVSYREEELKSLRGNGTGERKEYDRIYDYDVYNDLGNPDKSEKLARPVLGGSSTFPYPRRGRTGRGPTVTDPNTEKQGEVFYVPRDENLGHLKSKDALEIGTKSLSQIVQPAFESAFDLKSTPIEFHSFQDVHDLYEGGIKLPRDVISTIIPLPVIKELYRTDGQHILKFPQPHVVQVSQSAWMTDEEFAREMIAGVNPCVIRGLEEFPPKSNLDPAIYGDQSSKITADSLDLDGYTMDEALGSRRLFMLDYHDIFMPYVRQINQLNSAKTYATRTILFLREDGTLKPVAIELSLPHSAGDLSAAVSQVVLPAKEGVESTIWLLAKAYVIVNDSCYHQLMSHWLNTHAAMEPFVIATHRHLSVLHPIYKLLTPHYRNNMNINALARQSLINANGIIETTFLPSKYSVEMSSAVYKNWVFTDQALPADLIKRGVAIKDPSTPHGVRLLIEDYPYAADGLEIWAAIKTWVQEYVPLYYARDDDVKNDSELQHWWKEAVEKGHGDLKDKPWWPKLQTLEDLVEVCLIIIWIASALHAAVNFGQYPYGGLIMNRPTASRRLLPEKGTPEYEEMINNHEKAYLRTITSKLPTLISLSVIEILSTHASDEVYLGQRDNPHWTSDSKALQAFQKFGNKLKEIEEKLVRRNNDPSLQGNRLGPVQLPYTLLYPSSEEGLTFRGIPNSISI
Excerpt: Soybean lipoxygenase (Type I-B) is a very often used enzyme for the investigation of anti-inflammatory properties of compounds [38]. The LOX inhibition assay measures the rate of oxidation of linoleic acid by lipoxygenase, which results in the formation of a colorless product that can be detected spectrophotometrically. This enzyme catalyzes the conversion of linoleic acid into hydroperoxy fatty acids and results in increased absorbance at 234 nm. The tested compounds dissolved in DMSO were incubated at room temperature with sodium linoleate (3 mM in tris buffer pH = 9) and enzyme solution (5 × 10^3 units/mL in saline). The activity for each tested compound was presented as IC50 value ± standard deviation (SD) of three independent measurements.

[12] = Staphylococcus aureus, ATCC25923, S. aureus ATCC 25923, 48 h, read-out: BIC50

C/C(NNC(=O)c1ccc(O)c(O)c1O)=C1\C(=O)Oc2ccccc2C1=O [PCH-1, (E)-N′-(1-(2,4-dioxochroman-3-ylidene)ethyl)-2,3,4-trihydroxybenzohydrazide]
MMC [1]: 1.35 mM | MIC [1]: 1350 µM (≈ 500 µg/mL) | MMC [2]: 2.70 mM | MIC [2]: 2700 µM (≈ 1000 µg/mL) | MMC [3]: 0.17 mM | MIC [3]: 170 µM (≈ 63 µg/mL) | MMC [4]: 2.70 mM | MIC [4]: 2700 µM (≈ 1000 µg/mL) | MMC [5]: 2.70 mM | MIC [5]: 2700 µM (≈ 1000 µg/mL) | MMC [6]: 0.34 mM | MIC [6]: 170 µM (≈ 63 µg/mL) | MMC [7]: 0.34 mM | MIC [7]: 340 µM (≈ 126 µg/mL) | MMC [8]: 0.34 mM | MIC [8]: 340 µM (≈ 126 µg/mL) | MMC [9]: 2.70 mM | MIC [9]: 1350 µM (≈ 500 µg/mL) | BIC90 [10]: ˃2.70 mM | IC50 [10, 12]: > 2700 µM | inhibition at 25 µM [11]: 32.8 ± 2.4% | inhibition at 30 µM [11]: 36.8 ± 2.4% | inhibition at 40 µM [11]: 51.4 ± 1.8% | inhibition at 50 µM [11]: 65.1 ± 2% | inhibition at 60 µM ([11]; 60 µM): 84.9 ± 0.1% | inhibition at 100 µM [11]: 96.1 ± 0.7% | IC50 [11]: 38.1 µM

C/C(NNC(=O)c1cc(O)c(O)c(O)c1)=C1\C(=O)Oc2ccccc2C1=O [PCH-2, (E)-N′-(1-(2,4-dioxochroman-3-ylidene)ethyl)-3,4,5-trihydroxybenzohydrazide]
MMC [1]: 1.35 mM | MIC [1]: 1350 µM (≈ 500 µg/mL) | MMC [2]: 0.34 mM | MIC [2]: 340 µM (≈ 126 µg/mL) | MMC [3]: 0.34 mM | MIC [3]: 80 µM (≈ 29.6 µg/mL) | MMC [4]: 1.35 mM | MIC [4]: 1350 µM (≈ 500 µg/mL) | MMC [5]: 0.67 mM | MIC [5]: 670 µM (≈ 248 µg/mL) | MMC [6]: 0.34 mM | MIC [6]: 170 µM (≈ 63 µg/mL) | MMC [7]: 0.67 mM | MIC [7]: 340 µM (≈ 126 µg/mL) | MMC [8]: 0.34 mM | MIC [8]: 170 µM (≈ 63 µg/mL) | MMC [9]: 2.70 mM | MIC [9]: 1350 µM (≈ 500 µg/mL) | IC50 ([10]; ATCC25923, Staphylococcus aureus ATCC 25923, read-out: BIC50): 378 µg/mL | BIC90 [10]: ˃2.70 mM | IC50 [10, 12]: 1020 µM | inhibition at 20 µM ([11]; 20 µM): 20.7 ± 2.7% | inhibition at 25 µM [11]: 38.9 ± 3.1% | inhibition at 30 µM [11]: 41.9 ± 1.4% | inhibition at 40 µM [11]: 67 ± 0.9% | inhibition at 50 µM [11]: 71.7 ± 2.2% | inhibition at 100 µM [11]: 95.2 ± 1% | IC50 [11]: 34.1 µM

— article PMC11597774, “Investigation of Antimicrobial and Anti-Inflammatory Efficacy of Newly Synthesized Pyrogallol-Coumarin Hybrids: In Vitro and In Silico Studies” (Pharmaceutics, 2024)
